Values quoted from earlier work, collected in patent US20070122482A1, “Method for preparing modified release pharmaceutical compositions” (priority 2003, published 2007).
Where a name gives a salt, the structure may show the parent alone. Read-outs that look alike come from different tables or passages of the source.

What was measured:
[1] = for Solubility in water: Table 1, Poorly-Soluble Drug Candidates; for Solubility In Water: Table 2, Poorly-Soluble Drugs with Low Bioavailability

Row | Compound | Solubility in water [1] | other results
1 | Cc1nnc2n1-c1ccc(Cl)cc1C(c1ccccc1)=NC2 [Alprazolam] | Insoluble | 
2 | CCOC(=O)C1=C(COCCN)NC(C)=C(C(=O)OC)C1c1ccccc1Cl (stereo not shown) [Amlodipine] | Slightly | 
3 | COc1ccc(CCN2CCC(Nc3nc4ccccc4n3Cc3ccc(F)cc3)CC2)cc1 [Astemizole] | Insoluble | Solubility In Water [1]: Insoluble; Bioavailability (in words) (Table 2): Low-moderate
4 | CC(=O)OC[C@H]1O[C@@H]([S-])[C@H](OC(C)=O)[C@@H](OC(C)=O)[C@@H]1OC(C)=O.CCP(CC)CC.[Au+] [Auranofin] |  | Solubility In Water [1]: Slightly soluble; Bioavailability (in vivo): Low (15-25%)
5 | Cn1cnc([N+](=O)[O-])c1Sc1ncnc2nc[nH]c12 [Azathioprine] | Insoluble | 
6 | CN1CCCC(n2nc(Cc3ccc(Cl)cc3)c3ccccc3c2=O)CC1 (stereo not shown) [Azelastine] | Insoluble | 
7 | OC(CCN1CCCCC1)(c1ccccc1)C1CC2C=CC1C2 (stereo not shown) [Biperiden] |  | Solubility In Water [1]: Sparingly soluble
8 | CCCC1O[C@@H]2C[C@H]3[C@@H]4CCC5=CC(=O)C=C[C@]5(C)[C@H]4[C@@H](O)C[C@]3(C)[C@]2(C(=O)CO)O1 (stereo partly shown) [Budesonide] | Sparingly | Solubility In Water [1]: Sparingly soluble; Bioavailability (Table 2): Low (˜15%)
9 | C=CCC1(CC(C)C)C(=O)NC(=O)NC1=O [Butalbital] | Insoluble | 
10 | NC(=O)N1c2ccccc2C=Cc2ccccc21 [Carbamazepine] | Insoluble | 
11 | C[C@@](Cc1ccc(O)c(O)c1)(NN)C(=O)O [Carbidopa] | Slightly | 
12 | CO/N=C(\C(=O)N[C@@H]1C(=O)N2C(C(=O)O)=C(COC(C)=O)CS[C@H]12)c1csc(N)n1 [Cefotaxime] | Sparingly | 
13 | COc1cc(N)c(Cl)cc1C(=O)NC1CCN(CCCOc2ccc(F)cc2)CC1OC (stereo not shown) [Cisapride] | Insoluble | Solubility In Water [1]: Insoluble
14 | CC[C@H]1OC(=O)[C@H](C)[C@@H](O[C@H]2C[C@@](C)(OC)[C@@H](O)[C@H](C)O2)[C@H](C)[C@@H](O[C@@H]2O[C@H](C)C[C@H](N(C)C)[C@H]2O)[C@](C)(OC)C[C@@H](C)C(=O)[C@H](C)[C@@H](O)[C@]1(C)O [Clarithromycin] | Insoluble | 
15 | CN1CCC[C@@H]1CCO[C@](C)(c1ccccc1)c1ccc(Cl)cc1 [Clemastine fumarate] |  | Solubility In Water [1]: Slightly soluble; Bioavailability (Table 2): Low (˜39%)
16 | CN1CCN(C2=Nc3cc(Cl)ccc3Nc3ccccc32)CC1 [Clozapine] | Slightly | 
17 | CC1CC(OC(=O)C(O)c2ccccc2)CC(C)(C)C1 (stereo not shown) [Cyclandelate] |  | Solubility In Water [1]: Insoluble; Bioavailability (in words) (Table 2): Low
18 | C#C[C@]1(O)CC[C@H]2[C@@H]3CCC4=Cc5oncc5C[C@]4(C)[C@H]3CC[C@@]21C [Danazol] |  | Bioavailability (in words) (Table 2): Low
19 | O=C(O)Cc1ccccc1Nc1c(Cl)cccc1Cl [Diclofenac sodium] | Sparingly | 
20 | OCCN(CCO)c1nc(N2CCCCC2)c2nc(N(CCO)CCO)nc(N3CCCCC3)c2n1 [Dipyridamole] | Slightly | 
21 | CCCC(CCC)C(=O)O [Divalproex] | Slightly | 
22 | CC(CCc1ccc(O)cc1)NCCc1ccc(O)c(O)c1 (stereo not shown) [Dobutamine] | Sparingly | 

Row | Compound | Solubility in water [1] | other results
23 | COc1cc2nc(N3CCN(C(=O)C4COc5ccccc5O4)CC3)nc(N)c2cc1OC (stereo not shown) [Doxazosin] | Slightly | 
24 | CCCCCc1cc(O)c2c(c1)OC(C)(C)[C@@H]1CCC(C)=C[C@@H]21 [Dronabinol] |  | Solubility In Water [1]: Insoluble
25 | CCOC(=O)[C@H](CCc1ccccc1)N[C@@H](C)C(=O)N1CCC[C@H]1C(=O)O [Enalapril] | Sparingly | 
26 | CCc1cccc2c3c([nH]c12)C(CC)(CC(=O)O)OCC3 (stereo not shown) [Etodolac] | Insoluble | 
27 | COc1cc([C@@H]2c3cc4c(cc3[C@@H](O[C@@H]3O[C@@H]5CO[C@@H](C)O[C@H]5[C@H](O)[C@H]3O)[C@H]3COC(=O)[C@H]23)OCO4)cc(OC)c1O [Etoposide] | Very Slightly | 
28 | NC(N)=Nc1nc(CSCCC(N)=NS(N)(=O)=O)cs1 [Famotidine] | Slightly | Solubility In Water [1]: Slightly soluble
29 | CCOC(=O)C1=C(C)NC(C)=C(C(=O)OC)C1c1cccc(Cl)c1Cl (stereo not shown) [Felodipine] | Insoluble | Solubility In Water [1]: Insoluble
30 | CC(C)(C)NC(=O)[C@H]1CC[C@H]2[C@@H]3CC[C@H]4NC(=O)C=C[C@]4(C)[C@H]3CC[C@]12C [Finasteride] | Insoluble | 
31 | OC(Cn1cncn1)(Cn1cncn1)c1ccc(F)cc1F [Fluconazole] | Slightly | 
32 | OCCN1CCN(CCCN2c3ccccc3Sc3ccc(C(F)(F)F)cc32)CC1 [Fluphenazine] |  | Solubility In Water [1]: Insoluble
33 | CC(C(=O)O)c1ccc(-c2ccccc2)c(F)c1 (stereo not shown) [Flurbiprofen] | Slightly | 
34 | COCCCC/C(=N\OCCN)c1ccc(C(F)(F)F)cc1 [Fluvoxamine] | Sparingly | 
35 | COc1ccc(Cl)cc1C(=O)NCCc1ccc(S(=O)(=O)NC(=O)NC2CCCCC2)cc1 [Glyburide] | Sparingly | 
36 | CC(C)Cc1ccc(C(C)C(=O)O)cc1 (stereo not shown) [Ibuprofen] | Insoluble | 
37 | O=[N+]([O-])O[C@H]1CO[C@H]2[C@@H]1OC[C@H]2O[N+](=O)[O-] [Isosorbide dinitrate] | Sparingly | Solubility In Water [1]: Sparingly soluble
38 | CC1=C(/C=C/C(C)=C/C=C/C(C)=C\C(=O)O)C(C)(C)CCC1 [Isotretinoin] | Insoluble | 
39 | COC(=O)C1=C(C)NC(C)=C(C(=O)OC(C)C)C1c1cccc2nonc12 (stereo not shown) [Isradipine] | Insoluble | Solubility In Water [1]: Insoluble
40 | CC(=O)N1CCN(c2ccc(OCC3COC(Cn4ccnc4)(c4ccc(Cl)cc4Cl)O3)cc2)CC1 (stereo not shown) [Ketoconazole] | Insoluble | 
41 | Nc1nnc(-c2cccc(Cl)c2Cl)c(N)n1 [Lamotrigine] | Slightly | 
42 | Cc1c(OCC(F)(F)F)ccnc1C[S+]([O-])c1nc2ccccc2[nH]1 (stereo not shown) [Lansoprazole] | Insoluble | 
43 | CC[C@H](C)C(=O)O[C@H]1C[C@@H](C)C=C2C=C[C@H](C)[C@H](CC[C@@H]3C[C@@H](O)CC(=O)O3)[C@H]21 [Lovastatin] | Insoluble | Solubility In Water [1]: Insoluble
44 | Cc1cccc(Nc2ccccc2C(=O)O)c1C [Mefenamic acid] | Slightly | 

Row | Compound | Solubility in water [1] | other results
45 | Nc1ccc(O)c(C(=O)O)c1 [Mesalamine] |  | Bioavailability (Table 2): Low (˜20%)
46 | Cc1ncc2n1-c1ccc(Cl)cc1C(c1ccccc1F)=NC2 [Midazolam] | Insoluble | 
47 | C[C@@H]1C[C@H]2[C@@H]3CCC4=CC(=O)C=C[C@]4(C)[C@@]3(Cl)[C@@H](O)C[C@]2(C)[C@@]1(O)C(=O)CCl [Mometasone] | Insoluble | 
48 | COc1ccc2cc(CCC(C)=O)ccc2c1 [Nabumetone] | Insoluble | Solubility In Water [1]: Insoluble
49 | CO[C@]12C[C@@H](COC(=O)c3cncc(Br)c3)CN(C)[C@@H]1Cc1cn(C)c3cccc2c13 [Nicergoline] | Insoluble | 
50 | CCn1cc(C(=O)O)c(=O)c2cc(F)c(N3CCNCC3)cc21 [Norfloxacin] | Slightly | Solubility In Water [1]: Slightly soluble
51 | COc1ccc2[nH]c([S+]([O-])Cc3ncc(C)c(OC)c3C)nc2c1 (stereo not shown) [Omeprazole] | Slightly | 
52 | CC(=O)O[C@H]1C(=O)[C@@]2(C)[C@H]([C@H](OC(=O)c3ccccc3)[C@]3(O)C[C@H](OC(=O)[C@H](O)[C@@H](NC(=O)c4ccccc4)c4ccccc4)C(C)=C1C3(C)C)[C@]1(OC(C)=O)CO[C@@H]1C[C@@H]2O [Paclitaxel] | Insoluble | 
53 | OCCN1CCN(CCCN2c3ccccc3Sc3ccc(Cl)cc32)CC1 [Perphenazine] |  | Bioavailability (in words) (Table 2): Low
54 | O=C1NC(=O)C(c2ccccc2)(c2ccccc2)N1 [Phenytoin] | Insoluble | 
55 | CN1C(C(=O)Nc2ccccn2)=C(O)c2ccccc2S1(=O)=O [Piroxicam] | Sparingly | 
56 | CCOC(=O)[C@H](CCc1ccccc1)N[C@@H](C)C(=O)N1Cc2ccccc2C[C@H]1C(=O)O [Quinapril] | Insoluble | 
57 | CCOC(=O)[C@H](CCc1ccccc1)N[C@@H](C)C(=O)N1[C@H](C(=O)O)C[C@@H]2CCC[C@@H]21 [Ramipril] | Insoluble | 
58 | CC(C)(C)NC(=O)[C@@H]1C[C@@H]2CCCC[C@@H]2CN1C[C@@H](O)[C@H](Cc1ccccc1)NC(=O)[C@H](CC(N)=O)NC(=O)c1ccc2ccccc2n1 [Saquinavir] | Practically insoluble | 
59 | CN[C@H]1CC[C@@H](c2ccc(Cl)c(Cl)c2)c2ccccc21 [Sertraline] | Slightly | Solubility In Water [1]: Slightly soluble
60 | CC(=O)S[C@@H]1CC2=CC(=O)CC[C@]2(C)[C@H]2CC[C@@]3(C)[C@@H](CC[C@@]34CCC(=O)O4)[C@H]12 [Spironolactone] |  | Solubility In Water [1]: Insoluble
61 | CN(C/C=C/C#CC(C)(C)C)Cc1cccc2ccccc12 [Terbinafine] | Slightly | 
62 | CC(C)(C)c1ccc(C(O)CCCN2CCC(C(O)(c3ccccc3)c3ccccc3)CC2)cc1 (stereo not shown) [Terfenadine] | Slightly | 
63 | C[C@]12CC[C@H]3[C@@H](CCC4=CC(=O)CC[C@@]43C)[C@@H]1CC[C@@H]2O [Testosterone] |  | Solubility In Water [1]: Insoluble; Bioavailability (in words) (Table 2): Low
64 | Cc1ccc(-c2nc3ccc(C)cn3c2CC(=O)N(C)C)cc1 [Zolpidem] | Sparingly | 
65 | Cholestyramine | Insoluble | 
